In patent publication US11219621B2, “Methods for treating immunodeficiency disease” (X4 Pharmaceuticals, Inc., priority 2015, dated 2022):

What was measured:
CCR5 = target: T1, CCR5 (Homo sapiens, UniProt P51681); conditions: cited from earlier work
T1 construct: expressed in transfected cells

CCR1 = target: T2, CCR1 (Homo sapiens, UniProt P32246); conditions: cited from earlier work
T2 construct: expressed in transfected cells; host or cells: HEK293F
T2 sequence (P32246 1-355): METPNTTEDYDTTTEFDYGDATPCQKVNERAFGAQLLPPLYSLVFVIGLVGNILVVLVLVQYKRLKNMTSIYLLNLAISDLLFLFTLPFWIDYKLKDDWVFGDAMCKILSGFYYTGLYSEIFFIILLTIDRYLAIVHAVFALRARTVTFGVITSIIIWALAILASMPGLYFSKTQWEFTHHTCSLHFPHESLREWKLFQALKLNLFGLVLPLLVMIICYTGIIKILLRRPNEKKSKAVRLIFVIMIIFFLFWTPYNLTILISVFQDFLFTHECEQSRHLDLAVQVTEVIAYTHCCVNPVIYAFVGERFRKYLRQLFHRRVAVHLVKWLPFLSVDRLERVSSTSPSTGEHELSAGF

[1] = human, in vivo
CCR2b = target: T3, CCR2b (Homo sapiens, UniProt P41597); conditions: cited from earlier work
T3 construct: expressed in transfected cells
T3 sequence (P41597 1-360 isoform P41597-2): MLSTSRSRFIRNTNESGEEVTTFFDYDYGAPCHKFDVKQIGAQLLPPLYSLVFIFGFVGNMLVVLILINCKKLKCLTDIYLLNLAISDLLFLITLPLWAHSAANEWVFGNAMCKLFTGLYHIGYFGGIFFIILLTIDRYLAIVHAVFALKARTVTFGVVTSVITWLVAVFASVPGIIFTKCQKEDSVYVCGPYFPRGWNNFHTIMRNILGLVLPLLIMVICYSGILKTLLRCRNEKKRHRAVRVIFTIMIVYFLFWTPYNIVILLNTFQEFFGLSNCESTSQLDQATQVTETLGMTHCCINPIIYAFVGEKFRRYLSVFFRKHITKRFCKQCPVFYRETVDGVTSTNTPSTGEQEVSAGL

[2] = system: white blood cells (WBC), neutrophils, lymphocytes; assay: Hematologic effects of a single oral dose in the male Beagle dog; type: in vivo
Experimental: Three fasted male Beagle dogs received a single dose of […]-001 in aqueous solution by oral gavage at dose levels of 5, 15, and 35 mg/kg (1 dog per dose level) in a volume of 1 mL/kg. Blood samples (approximately 3 mL each) were obtained at multiple timepoints from each animal by direct venipuncture of the jugular vein and collected using Vacutainer® tubes containing K3EDTA as the anticoagulant. […] Blood samples were stored at ambient room temperature prior to automated differential analysis Body weights were determined prior to dosing on the day of test article administration. […] Hematology parameters included the following: White Blood Cell Count (WBC) Differential white blood cell count (absolute and relative) • Neutrophil • Lymphocytes • Monocytes • Eosinophils • Basophils • Large Unstained Cells (LUC) • Hematocrit (HCT) • Hemoglobin (HGB) • Mean Corpuscular Hemoglobin (MCH) • Mean Corpuscular Hemoglobin Concentration (MCHC) • Mean Corpuscular Volume (MCV) • Platelet Count (PLT) • Red Blood Cell Count (RBC) Results

[3] = 28-Day GLP oral (capsule) toxicity study in the Beagle dog with 14-day recovery; type: in vivo
Experimental: A 28-Day GLP oral (capsule) toxicology study was conducted with […]-001 in the male and female beagle dog, and hematology effects were observed, with […]-001 administered twice-daily (at least 7 hours apart) by oral capsule for 28 days. A subset of treated animals was evaluated after a 14-day recovery period. [table] [table]

CXCR7 = target: T4, CXCR7 (Homo sapiens, UniProt P25106); set-up: Inhibition of SDF-1α binding to CXCR7: dose or concentration left out as unconfirmed; conditions: cited from earlier work
T4 construct: expressed in transfected cells
T4 sequence (P25106 whole entry): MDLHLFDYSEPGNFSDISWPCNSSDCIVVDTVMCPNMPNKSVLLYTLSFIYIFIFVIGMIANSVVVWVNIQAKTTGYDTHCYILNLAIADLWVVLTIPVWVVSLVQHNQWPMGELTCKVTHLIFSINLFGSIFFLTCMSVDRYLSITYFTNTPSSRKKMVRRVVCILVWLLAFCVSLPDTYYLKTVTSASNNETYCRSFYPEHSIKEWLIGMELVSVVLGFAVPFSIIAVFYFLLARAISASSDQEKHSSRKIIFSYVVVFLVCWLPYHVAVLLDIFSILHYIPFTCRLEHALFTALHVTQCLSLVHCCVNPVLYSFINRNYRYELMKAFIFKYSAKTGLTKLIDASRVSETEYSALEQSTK

BLT1 = target: T5, BLT1 (Homo sapiens, UniProt Q15722); conditions: cited from earlier work
T5 construct: expressed in transfected cells
T5 sequence (Q15722 whole entry): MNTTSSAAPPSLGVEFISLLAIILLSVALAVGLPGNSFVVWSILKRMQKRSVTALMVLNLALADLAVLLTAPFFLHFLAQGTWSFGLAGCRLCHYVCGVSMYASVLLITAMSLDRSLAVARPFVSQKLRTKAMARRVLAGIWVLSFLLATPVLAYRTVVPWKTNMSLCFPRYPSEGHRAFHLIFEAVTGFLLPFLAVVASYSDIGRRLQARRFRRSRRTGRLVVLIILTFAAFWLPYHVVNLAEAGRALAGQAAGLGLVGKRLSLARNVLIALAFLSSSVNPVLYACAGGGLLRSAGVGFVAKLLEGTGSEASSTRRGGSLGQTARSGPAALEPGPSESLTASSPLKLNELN

[4] = Clinical studies, oral administration to healthy volunteers and HIV patients
[5] = single oral dose 5, 15, 35 mg/kg
[6] = F, 10 mg/kg/d, termination, †p < 0.05
[7] = F, 30 mg/kg/d, termination, †p < 0.05
[8] = F, 100 mg/kg/d, termination, †p < 0.05
[9] = M, 100 mg/kg/d, termination, †p < 0.05

T1 sequence (P51681 whole entry): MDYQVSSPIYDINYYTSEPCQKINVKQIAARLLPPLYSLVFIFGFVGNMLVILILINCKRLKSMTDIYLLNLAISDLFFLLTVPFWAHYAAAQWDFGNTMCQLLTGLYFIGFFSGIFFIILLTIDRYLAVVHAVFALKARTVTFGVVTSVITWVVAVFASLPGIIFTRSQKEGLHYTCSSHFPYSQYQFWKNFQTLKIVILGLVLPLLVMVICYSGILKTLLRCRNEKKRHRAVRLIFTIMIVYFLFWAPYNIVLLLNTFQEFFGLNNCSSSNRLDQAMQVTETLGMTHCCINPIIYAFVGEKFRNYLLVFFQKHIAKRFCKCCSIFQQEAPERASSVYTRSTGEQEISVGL

Volume of distribution (VL) [1]: high | Other hematological effects [2, 5]: No other hematological effects
SMILES: NCCCCN(Cc1nc2ccccc2[nH]1)[C@H]1CCCc2cccnc21 [X4P-001]
IC50 (CCR5; CCR5, HEK293F-CCR5, RANTES/CCL5, read-out: IC50 AMD11070): > 50 µM | Inhibitory effect on RANTES mediated calcium flux (CCR5) (CCR5): little or no inhibitory effect | IC50 (CCR1; CCR1, HEK293F-CCR1, MIP-1α/CCL3, read-out: IC50 AMD11070): > 50 µM | Inhibitory effect on MIP1α mediated calcium flux (CCR1) (CCR1): little or no inhibitory effect | IC50 (CCR2b; CCR2b, HEK293F-CCR2b, MCP-1/CCL2, read-out: IC50 AMD11070): > 50 µM | Inhibitory effect on MCP-1 mediated calcium flux (CCR2b) (CCR2b): little or no inhibitory effect | Peak elevations of WBC above baseline ([2]; 5 mg/kg dose level): 1.5 fold | Total circulating WBC, neutrophils, and lymphocytes, increase ([2]; 5 mg/kg, all three cell counts): 1.47 × baseline | Lymphocytes, increase ([2]; 15 mg/kg): 2.9 × | Neutrophils, increase ([2]; 15 mg/kg): 1.8 × | Lymphocytes, increase ([2]; 35 mg/kg): 1.9 × | Neutrophils, increase ([2]; 35 mg/kg): 2.7 × | Time at which increases were consistently apparent ([2]; 5, 15, and 35 mg/kg): 4 h | Time of peak of increases ([2]; 5, 15, and 35 mg/kg, typically, occasionally earlier): ~12 h | Peak elevations of WBC above baseline ([2]; 15 and 35 mg/kg dose levels): 1.8-2.9 fold | WBC, neutrophil, and lymphocyte counts at 24 hours ([2]; 15 and 35 mg/kg, with evidence of return to baseline): remained elevated | Time of maximal increases in WBC [2, 5]: 4-12 hours post-dose | Coagulation ([3]; 10 mg/kg/d, termination): No changes | reticulocytes ([3]; 10 mg/kg/d, termination): No changes | Coagulation ([3]; 30 mg/kg/d, termination): No changes | reticulocytes ([3]; 30 mg/kg/d, termination): No changes | Coagulation ([3]; 100 mg/kg/d, termination): No changes | lymphocytes (abs), incr ([3]; F, 10 mg/kg/d, termination): F incr 1.4x | monocytes (abs), incr [3, 6]: F incr 1.6x† | neutrophils (abs), incr [3, 6]: F incr 1.9x† | lymphocytes (abs), incr [3, 7]: F incr 1.6x† | monocytes (abs), incr [3, 7]: F incr 1.9x† | neutrophils (abs), incr [3, 7]: F incr 2.3x† | lymphocytes (abs), incr [3, 8]: F incr 1.4x† | monocytes (abs), incr [3, 8]: F incr 2.4x† | neutrophils (abs), incr [3, 8]: F incr 2.8x† | reticulocytes, decr [3, 8]: F decr 0.24x† | lymphocytes (abs), incr ([3]; M, 10 mg/kg/d, termination): M incr 1.3x; | monocytes (abs), incr ([3]; M, 10 mg/kg/d, termination): M incr 1.2x; | neutrophils (abs), incr ([3]; M, 10 mg/kg/d, termination): M incr 1.2x; | lymphocytes (abs), incr ([3]; M, 30 mg/kg/d, termination): M incr 1.6x; | monocytes (abs), incr ([3]; M, 30 mg/kg/d, termination): M incr 1.3x; | neutrophils (abs), incr ([3]; M, 30 mg/kg/d, termination): M incr 1.2x; | neutrophils (abs), incr ([3]; M, 100 mg/kg/d, termination): M incr 1.8x; | lymphocytes (abs), incr [3, 9]: M incr 2.3x†; | monocytes (abs), incr [3, 9]: M incr 1.9x†; | All hematology results after the 14-day recovery period ([3]; only 100 mg/kg dose group evaluated): returned to within normal levels | IC50 (CXCR7; CXCR7, Cf2Th.CXCR7, SDF-1α/CXCL12, ligand binding, read-out: IC50 AMD11070): > 10 µM | Inhibitory effect on SDF-1α binding to CXCR7 (CXCR7): little or no inhibitory effect | Inhibition of SDF-1α binding to CXCR7 (CXCR7; the maximum concentration tested): did not inhibit | IC50 (BLT1; BLT1, CHO-S-LTB4, LTB4, ligand binding, read-out: IC50 AMD11070): > 50 µM | Inhibitory effect on LTB4 binding to BLT1 (BLT1): little or no inhibitory effect | Pharmacodynamic activity, circulating white blood cells (WBCs) ([4]; healthy volunteers and HIV patients): dose- and concentration-related changes | Increases in WBC counts ([4]; human subjects, dose-dependent, FIG. 9): 2-3 ×
